Results from patent US6150414A, “Compositions and methods for treating viral infections” (priority 1992, dated 2000).
“And” between values parts separate entries of the source, which are not always exact repeats. Identical values can stand only once. Like-named read-outs stand apart in the source and are kept apart here.

Tests used:
[1] = tested on: virus budding in virus-producing cells; assay: In vitro inhibition of virus budding: production of defective budded virions (Example 10); type: cell-based; conditions: read-out: EC50 for production of defective budded virions
Excerpt: (§1) The results presented above in Table IX are presented as EC50 concentrations. These are the effective concentrations which inhibit 50% of the viruses in micromolar concentrations.

[2] = tested on: Friend Leukemia Virus; assay: In vivo inhibition of Friend Leukemia Virus splenomegaly, intravenous 1-2 hours post infection (Example 10); parameters: species or system mice; conditions: Mus musculus, read-out: EC50 for FV-induced splenomegaly
Description: (§2) (3) In vivo inhibition of Friend Leukemia Virus Splenomegaly performed as described in Example 1 above except that the compounds were administered intravenously 1-2 hours post infection.
as §1

[3] = tested on: Friend Leukemia Virus; assay: Inhibition of Friend Leukemia Virus-induced splenomegaly in mice, compounds intraperitoneally 24 hours after virus (Example 1(a)); type: in vivo, BALB/c mice; parameters: Actual Spleen Weight / Average Spleen Weight: unit not given here; conditions: for Spleen weight: single animal, listed as PS
How it was run: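 BALB/c mice inoculated i.v. with 10^6 FFU Friend virus (spleen homogenate); compounds given i.p. 24 h later at 100 μg once, or 50, 100, 200 μg or 2×100 μg (second dose 24–48 h after first), two mice per group. Spleens weighed at day 10; percent inhibition from average spleen weights relative to negative and positive controls.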

[4] = tested on: retroviruses; assay: Comparison over two in vitro and one in vivo biological assays (Example 10); conditions: for loss of antiviral activity relative to parent: Example 10, structural comparison
Description: In order to investigate the structural features of hypericin which are essential for antiretroviral activity, numerous analogs and precursors of hypericin were examined for activity in two in vitro and one in vivo biological assay.
(§3) (1) Direct inactivation of retroviruses in vitro, performed as in Example 3 above;
as §2

[5] = tested on: Friend Leukemia Virus; assay: Intravenous co-administration of pseudohypericin with Friend Leukemia Virus, splenomegaly; type: in vivo, mouse; conditions: for Spleen Weights: single animal, listed as PS
Description: A different experimental design was used involving the simultaneous intravenous co-administration of Ps with the FV complex. In this case, the viral preparation was mixed with Ps at various concentrations and the mixture was injected into the mouse tail vein in a final volume of 0.5 ml. The mice were sacrificed ten days later, their spleens weighed, and the level of inhibition of splenomegaly subsequently determined.
The effect of intravenous co-administration of pseudohypericin (diluted in PBS with 1% EtOH) with FV, on viral-induced splenomegaly.

[6] = biological target: T1, Radiation Leukemia Virus reverse transcriptase (Radiation murine leukemia virus, UniProt P11227); assay: Radiation Leukemia Virus reverse transcriptase assay, supernatants from infected AQR cells (Examples 4 and 9); type: biochemical; conditions: Table VIII; for CPM: replicate
T1 construct: the reverse transcriptase of Radiation Leukemia Virus; endogenous in cells
Description: (§4) Supernatants (10 ml/tube) from B10.T(6R) cells (Meruelo et al. J. Exp. Med. 147: 470-487, 1978) chronically infected with Radiation Leukemia Virus (RadLV) were obtained by centrifugation of cells in culture at 4° C., 3500 rpm for 15 minutes. The top 2/3 of the supernatant were removed and aliquots were incubated for 30 minutes on ice with the indicated amounts of hypericin or protohypericin. […] Thereafter, supernatants were centrifuged at 100,000×g using a TI70 rotor (Beckman Instruments) for 1 hour at 4° C. The pellet was […] and analyzed for reverse transcriptase activity as follows.
(§5) The reverse transcriptase assay was performed in a volume of 100 microliters containing the following components:
The antiviral activity of HHA was tested using AQR (Bach and Meruelo, J. Exp. Med. 160:270-285, 1984) cells chronically infected with Radiation Leukemia Virus in the reverse transcriptase assay as described in Example 3 above.
The assays were conducted using the same procedure as in Example 3 above, using supernatants from infected AQR cells.

[7] = tested on: Friend Virus; assay: Friend Virus-induced splenomegaly, WIS compounds (Example 8); type: in vivo, mice; conditions: for Average % Inhibition / Average Spleen Weight / Actual Spleen Weight: Table VII; for Actual Spleen Weight: single animal
Description: The effects of compositions according to the present invention on the increase in spleen size (splenomegaly) of BALB/c mice (Jackson Labs, Bar Harbor, ME) was examined. In these experiments, the virus (10^6 focus forming units--FFU) was inoculated intravenously and 100 micrograms of the compounds indicated in Table II were administered to the mice intraperitoneally 24 hours later. Each compound was administered once to two mice. The animals were sacrificed ten days later and their spleens weighed.
As used in Table II (and subsequent Tables of this Example l(a) and (b), "average percent inhibition" is calculated as follows: [formula] wherein "ASWNC" designates "average spleen weight of negative control"; "ASWE" designates "average spleen weight of experimental (treated) subject"; and "ASWPC" designates "average spleen weight of positive control". Average spleen weight is the numerical average of spleen weights of each experimental group (in Table II each such group includes two members).
The AAB compounds whose synthesis is described above were assayed for antiviral activity. WIS-2, -3, -4, -5 and -6 were tested to determine their biological effects on Friend Virus-induced splenomegaly using the procedure and technique set forth in Example 1 above. The assay results (three mice per group were tested each at different concentrationss of the active composition except for the PBS-negative control wherein two animals per group were used) are reported in Table VII below.

[8] = tested on: retroviruses (virions); assay: Direct inactivation of retroviruses (virions) in vitro (Example 10); type: biochemical, Radiation Leukemia Virus; conditions: Table IX
Description: as §4, §5, §3, §1

[9] = FV 2 × 10^5 FFU, PS 80 mcg/mouse
[10] = FV 2 × 10^5 FFU, PS 80 mcg/mouse 2 inject
[11] = FV 10^6 FFU, PS 80 mcg/mouse 2 injections
[12] = FV + PS 5 mcg i.v. co-administration
[13] = FV + PS 20 mcg i.v. co-administration
[14] = FV + PS 50 mcg i.v. co-administration

Structure (SMILES): O=C1c2ccccc2C(=C2c3ccccc3C(=O)c3ccccc32)c2ccccc21 [Compound 36, Bianthrone]
- EC50 ([1]; in vitro, Table IX): > 100 µM
- EC50 ([2]; i.v. 1-2 hours post infection, Table IX): 98 µM
- inhibition in vivo at 0.1 mg ([3]; Mus musculus, ip, dose 2 × 100 (micrograms) i.p., Table III, read-out: Average Perdosage % Inhibition): 50%
- inhibition in vivo at 0.05 mg ([3]; Mus musculus, ip, dose 50 (micrograms) i.p., Table III, read-out: Average Perdosage % Inhibition): 52%
- inhibition in vivo at 0.1 mg ([3]; Mus musculus, ip, dose 100 (micrograms) i.p., Table III, read-out: Average Perdosage % Inhibition): 48%
- inhibition in vivo at 0.2 mg ([3]; Mus musculus, ip, dose 200 (micrograms) i.p., Table III, read-out: Average Perdosage % Inhibition): 57%
- Average Spleen Weight ([3]; dose 2 × 100 (micrograms) i.p., Table III): 1.1353
- Average Spleen Weight ([3]; dose 50 (micrograms) i.p., Table III): 1.0839
- Average Spleen Weight ([3]; dose 100 (micrograms) i.p., Table III): 1.1575
- Average Spleen Weight ([3]; dose 200 (micrograms) i.p., Table III): 0.9970
- Pooled Average % Inhibition ([3]; pooled over 50, 100, 200, 2 × 100 micrograms, Table III): 52%

Structure (SMILES): Cc1cc(O)c2c(=O)c3c(O)cc(O)c4c5c(O)cc(O)c6c(=O)c7c(O)cc(CO)c8c1c2c(c34)c(c65)c78 [pseudohypericin, Pseudohypericin]
- EC50 [2]: 3.8 µM
- activity across assays ([4]; Example 10): high degree of activity in a more than one assay
- median inhibition in spleen enlargement ([3]; 80 micrograms per mouse single injection, 2×10^5 FFU): 89.6%
- inhibition of FV-induced splenomegaly / anti-retroviral activity ([3]; Example 1(a)): marked decrease in the spleen enlargement capacity of the Friend Leukemia Virus
- % Inhib [3, 9]: 81.15%
- Net change from control [3, 9]: 0.1292
- Spleen weight, mean (x) [3, 9]: 0.3138 ± 0.1197 gms
- % Inhib [3, 10]: 89.58%
- Net change from control [3, 10]: 0.0714
- Spleen weight, mean (x) [3, 10]: 0.2560 ± 0.0723 gms
- Spleen weight [3, 10]: 0.3457 gms and 0.2784 gms and 0.2208 gms and 0.1791 gms
- Spleen weight [3, 9]: 0.4924 gms and 0.2469 gms and 0.2722 gms and 0.2438 gms
- % Inhib ([3]; FV 10^6 FFU, PS 80 mcg/mouse): 90.70%
- Net change from control ([3]; FV 10^6 FFU, PS 80 mcg/mouse): 0.0841
- Spleen weight, mean (x) ([3]; FV 10^6 FFU, PS 80 mcg/mouse): 0.2687 ± 0.0621 gms
- % Inhib [3, 11]: 93.82%
- Net change from control [3, 11]: 0.0558
- Spleen weight, mean (x) [3, 11]: 0.2404 ± 0.0482 gms
- Spleen weight [3, 11]: 0.2831 gms and 0.2761 gms and 0.2215 gms and 0.1810 gms
- Spleen weight ([3]; FV 10^6 FFU, PS 80 mcg/mouse): 0.2457 gms and 0.3400 gms and 0.2938 gms and 0.1956 gms
- median inhibition of splenomegaly ([3]; single injection of 80 micrograms per mouse): 93.8%
- median inhibition of splenomegaly ([3]; two daily consecutive injections of 80 micrograms per mouse, 2×10^5 FFU): 81.7%
- median inhibition of splenomegaly ([3]; two daily consecutive injections of 80 micrograms per mouse, 10^6 FFU): 90.7%
- Spleen Weights, mean (x) [5, 12]: 0.3862 grams
- Spleen Weights [5, 12]: 0.3425 grams and 0.3766 grams and 0.4005 grams and 0.4255 grams
- % Inhibition ([5]; FV + PS 5 mcg per mouse i.v. co-administration): 75.44%
- Spleen Weights, mean (x) [5, 13]: 0.1614 grams
- Spleen Weights [5, 13]: 0.1655 grams and 0.1426 grams and 0.1433 grams and 0.1966 grams
- % Inhibition ([5]; FV + PS 20 mcg per mouse i.v. co-administration): 100%
- Spleen Weights, mean (x) [5, 14]: 0.1572 grams
- Spleen Weights [5, 14]: 0.1830 grams and 0.1674 grams and 0.1422 grams and 0.1365 grams
- % Inhibition ([5]; FV + PS 50 mcg per mouse i.v. co-administration): 100%

Structure (SMILES): CC(=O)Oc1cc(C)c2c3c(C)cc(OC(C)=O)c4cc5c(OC(C)=O)cc(OC(C)=O)c6c7c(OC(C)=O)cc(OC(C)=O)c8cc1c2c(c87)c(c43)c56 [WIS-4, desoxohypericinhexaacetate]
- Average CPM ([6]; 0.05 micrograms): 164,212 CPM
- CPM ([6]; 0.05 micrograms): 156,830 CPM and 171,594 CPM
- Average CPM ([6]; 0.1 micrograms): 144,512 CPM
- CPM ([6]; 0.1 micrograms): 100,504 CPM and 188,520 CPM
- Average CPM ([6]; 0.5 micrograms): 208,119 CPM
- CPM ([6]; 0.5 micrograms): 196,740 CPM and 219,498 CPM
- Average CPM ([6]; 1 microgram): 180,180 CPM
- CPM ([6]; 1 microgram): 179,312 CPM and 181,048 CPM
- Average CPM ([6]; 2 micrograms): 237,365 CPM
- CPM ([6]; 2 micrograms): 236,374 CPM and 238,356 CPM
- Average CPM ([6]; 5 micrograms): 164,440 CPM
- CPM ([6]; 5 micrograms): 164,780 CPM and 164,100 CPM
- Average CPM ([6]; 10 micrograms): 184,852 CPM
- CPM ([6]; 10 micrograms): 186,168 CPM and 183,536 CPM
- inhibition at 50 ng ([6]; 0.5 h, 0.05 micrograms): 79.9%
- inhibition at 0.0001 mg ([6]; 0.5 h, 0.1 micrograms): 82.3%
- inhibition at 0.0005 mg ([6]; 0.5 h, 0.5 micrograms): 74.5%
- inhibition at 0.001 mg ([6]; 0.5 h, 1 microgram): 77.9%
- inhibition at 0.002 mg ([6]; 0.5 h, 2 micrograms): 70.9%
- inhibition at 0.005 mg ([6]; 0.5 h, 5 micrograms): 79.9%
- inhibition at 0.01 mg ([6]; 0.5 h, 10 micrograms, read-out: Average % Inhibition): 77.4%
- EC50 [2]: > 242 µM
- Average % Inhibition ([7]; 1 microgram): 14.9%
- Average Spleen Weight ([7]; 1 microgram): 0.8480
- Actual Spleen Weight ([7]; 1 microgram): 0.7790 and 0.8852 and 0.8797
- Average % Inhibition ([7]; 10 micrograms): 22.0%
- Average Spleen Weight ([7]; 10 micrograms): 0.7921
- Actual Spleen Weight ([7]; 10 micrograms): 0.8118 and 0.8625 and 0.7019
- Average % Inhibition ([7]; 50 micrograms): 28.8%
- Average Spleen Weight ([7]; 50 micrograms): 0.7384
- Actual Spleen Weight ([7]; 50 micrograms): 0.7368 and 0.7744 and 0.7041
- Average % Inhibition ([7]; 150 micrograms): 46.1%
- Average Spleen Weight ([7]; 150 micrograms): 0.6012
- Actual Spleen Weight ([7]; 150 micrograms): 0.6214 and 0.6663 and 0.5159
- antiviral activity in splenomegaly assay ([7]; Example 8): most active compounds of the group in the splenomegaly assay
- EC50 [8]: 6.9 µM
- loss of antiviral activity relative to parent [4]: loss of activity

Structure (SMILES): O=C(O)c1cc(O)c2c(=O)c3c(O)cc(O)c4c5c(O)cc(O)c6c(=O)c7c(O)cc(C(=O)O)c8c1c2c(c34)c(c65)c78 [WIS-1, Hypericin-dicarboxylic acid]
- EC50 [1]: > 100 µM
- loss of antiviral activity relative to parent [4]: diminished the antiviral activity
